In PMC7544787, “One-step purification of two novel thermotolerant β-1,4-glucosidases from a newly isolated strain of Fusarium chlamydosporum HML278 and their characterization” (AMB Express, 2020):

Tested on: T1, β-glucosidase purified from F. chlamydosporum HML278 (BG FH1 / BG FH2, not told which)
T1 construct: native secreted enzyme from solid-state fermentation; native PAGE recovery and Sephacryl S-200; 93 kDa and 52 kDa (SDS-PAGE), single subunit
Test: initial rates, Lineweaver-Burk
Type: biochemical, Fusarium chlamydosporum
Details: pH 4.8, 30 °C; one value given, not told whether BG FH1 or BG FH2
Description: initial rates, Lineweaver-Burk on β-glucosidase purified from F. chlamydosporum HML278 (BG FH1 / BG FH2, not told which) | By using pNPG as a substrate, it was shown that the Km and Vmax values

Compound `O=[N+]([O-])c1ccc(O[C@@H]2O[C@H](CO)[C@@H](O)[C@H](O)[C@H]2O)cc1` [pNPG] has a Km of 2.76 mg/mL.
